In US20230295058A1, “SYSTEMS AND METHODS FOR GENERATION OF HYPERPOLARIZED COMPOUNDS USING PARAHYDROGEN” (NVISION IMAGING TECHNOLOGIES GMBH, priority 2020, published 2023):
Read-outs that look alike come from different tables or passages of the source.

Experiments:
[1] = cited from earlier work
variety of cell lines = assay: cytotoxicity of clean fumarate samples following precipitation; format: cell-based; settings: precipitated, washed and redissolved samples, even at high concentrations (FIG. 10)
Procedure: FIG. 10 depicts the results of cytotoxicity experiments performed using samples of precipitated, washed and redissolved sodium fumarate generated in accordance with disclosed embodiments
The clean fumarate samples following precipitation were tested for cytotoxicity using a variety of cell lines. FIG. 10 depicts the result of the cell line experiments.

Compound	maximal mole fraction in n-heptane ([1]; 14.8° C.)	maximal mole fraction in n-heptane ([1]; −29.2° C.)	cytotoxicity (variety of cell lines)
CC(=O)O [acetic acid]	0.935	0.02	
O=C([O-])/C=C/[13C](=O)[O-].[Na+].[Na+] [sodium fumarate, sodium fumarate-1-^13C]			No toxicity was visible
